Data set [1] in a line: Protein binding to human plasma proteins by equilibrium dialysis. In kind it is in vitro ADME. Particulars: pH 7.4, equilibrium dialysis 6 h, 37° C. How it is done:
96 Well Plate (High Throughput Dialysis): Stock solution of compound was spiked into human plasma at a target concentration of 2000 ng/mL. The mixture was inverted gently several times to insure homogeneity and triplicate 50 μL aliquots were collected to verify initial concentrations. Following assembly of dialysis plate (HTDialysis membrane strips, molecular weight cut off limit of 12,000-14,000 daltons), spiked plasma (150 μL) was placed in the donor compartment of the well and Phosphate Buffered Saline pH 7.4 (150 μL) in the receiver compartment. Eight wells were set up per compound and plasma type. Plate was placed in a 37° C. incubator on a plate shaker. Following the 6 h incubation period, the plate was removed. Single 50 μL aliquots from each donor and receiver compartment (per well) were analyzed.
Sample analysis was by LC/MS/MS (results reported as Drug Peak Area/Internal Standard Peak Area ratios). Protein binding assay can also be performed using dialysis cells instead of HT Dialysis 96 well plates. In Table 1, % Protein Binding, +=>98%; ++=95-98%: +++=<95%.

Data set [2] concerns cancer cell lines. As to the kind of experiment: Methylene Blue, Cell-Titre Glo Growth or Multiple Cell Line cellular proliferation assays. In kind it is cell-based. How it is done: Generally, exponentially growing cell lines of different tumor origins, cultured in appropriate media containing 10% fetal bovine serum at 37° C. in a 5% CO2 incubator were plated at low density (less than 2000 cells/well) in 96-well plates. Twenty four hours post-plating, cells were treated with different concentrations of compound ranging from 10 uM to 0.04 nM. Several wells were left untreated as a control. Seventy two hours post-treatment, cell numbers were determined using 100 μl per well of methylene blue (Sigma M9140) (0.5% in 50:50 Ethanol:water). Stain was incubated at room temperature for 30 minutes before plates were rinsed and dye solubilized in 1% N-lauroyl sarcosine, sodium salt, (Sigma L5125, in PBS) (further details of a methylene blue assay are described below). Plates were read on a microplate reader, measuring the OD at 620 nm.
Exponentially growing cell lines of different tumor origins, cultured in appropriate media containing 10% fetal bovine serum at 37° C. in a 5% CO2 incubator were plated at low density (less than 2000 cells/well) in 96-well plates. […] Seventy two hours post-treatment, cell numbers were determined using 50-100 ul per well of CellTiter-Glo (Promega #G7573). Plates were incubated at room temperature for 15 minutes and the chemiluminescent signal was read on the Victor V or Envison 2100 reader. […]

The subject of data set [3] is SF-295. As to the kind of experiment: Washout assay, recovery of cell growth (MTT). In kind it is cell-based. The conditions noted are these: SF-295, glioblastoma; 3 days exposure then washout. How it is done:
(§1) Seven glioma cell lines that can double at least once over three days were thawed and grown to 70-80% confluency before being used in the assay. On day 1, for each cell line, 2-3×10^5 cells were seeded into each well in 6-well cell culture plates and incubated at 37° C. overnight. […] The plates were incubated at 37° C. for 3 days.
(§2) On day 5, the compound was efficiently washed four times with culture medium supplemented with 20% fetal bovine serum (FBS) and then washed once in buffered saline solution (PBS). The cells were trypsinized. For each of the concentrations, compound-treated cell lines were plated into five 96-well plates at 5000 cells per well. For the next 4 consecutive days, one plate of the cells was taken out of the incubator and cell proliferation was measured by MTT ELISA assay.
(§3) The washout assay is designed to follow the cells' recovery from exposure to the compound. Each glioma cell line was assayed at least twice. The criteria for evaluating sensitivity or resistance was Last Growth Back Concentration (LGC), if LGC<=30 nM, the cell line is considered sensitive; if LGC>=1 uM, it is considered resistant; if LGC is in between these two concentrations, the cell line is considered intermediate. Based on criteria set, all the glioma cell lines appeared to be sensitive to the compound of Example 1.

The subject of data set [4] is SF-539. As to the kind of experiment: Washout assay, recovery of cell growth (MTT). In kind it is cell-based. Particulars: SF-539, astrocytoma; 3 days exposure then washout. How it is done:
as §1, §2, §3

The subject of data set [5] is SF-268. As to the kind of experiment: Washout assay, recovery of cell growth (MTT). In kind it is cell-based. Particulars: SF-268, glioblastoma; 3 days exposure then washout. How it is done: as §1, §2, §3
In data set [6] the test system is SNB-19. As to the kind of experiment: Washout assay, recovery of cell growth (MTT). In kind it is cell-based. Particulars: SNB-19, glioblastoma; 3 days exposure then washout. How it is done:
as §1, §2, §3

The test system of data set [7] is SW1088. The experiment in a line: Washout assay, recovery of cell growth (MTT). In kind it is cell-based. The conditions noted are these: SW1088, astrocytoma; 3 days exposure then washout. How it is done:
as §1, §2, §3

In data set [8] the test system is H4. As to the kind of experiment: Washout assay, recovery of cell growth (MTT). In kind it is cell-based. The conditions noted are these: H4, glioma; 3 days exposure then washout. How it is done:
as §1, §2, §3

The subject of data set [9] is A172. The experiment in a line: Washout assay, recovery of cell growth (MTT). Particulars: A172, glioblastoma; 3 days exposure then washout. In kind it is cell-based. On the procedure: as §1, §2, §3

Structures are written as SMILES. pIC50: −log10 of the molar value.

Usually fraction unbound stands for free concentration divided by total concentration. As a reminder, the pIC50 is −log10 of the IC50, conventionally taken in molar units. Read a low pIC50 as a large IC50. In data set [1], `C[C@@H](Oc1cc(-n2cnc3ccc(CN4CCN(C)CC4)cc32)sc1C(N)=O)c1ccccc1C(F)(F)F` [Example 1, 5-{6-[(4-Methylpiperazin-1-yl)methyl]-1H-benzimidazol-1-yl}-3-{(1R)-1-[2-(trifluoromethyl)phenyl]ethoxy}thiophene-2-carboxamide] returned a free fraction (fraction unbound) at 6 h, 2000 ng/mL of over 0.05. Besides, the pIC50 in data set [2] is over 6.00. For the same compound, the “LGC (Last Growth Back Concentration)” value is listed as 10 nM in data set [3]; 30 nM in data set [4]; 10 nM in data set [5]; 10 nM in data set [6]; 10 nM in [7]; 10 nM in data set [8]. Also, the “LGC (Last Growth Back Concentration)” value in data set [9] is recorded as under 10 nM.

(Values after patent US20090005398A1, “Methods For The Treatment of Central Nervous System Tumors” (priority 2007, published 2009).)
